Laboratory results taken from PubChem BioAssay (NCI).
“And” between values parts separate entries of the source, which are not always exact repeats. Identical values can stand only once.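 Protocol summary: plate cells (96-well), add compound at 5 concentrations, incubate 48 h, interpolate endpoints linearly. GI50 marks 50% less growth. At the TGI there is no net growth.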

Tests used:
Assay in all cases: inhibition of tumour cell growth, NCI panel, 48 h
UACC-257 melanoma = tested on: UACC-257 melanoma
HOP-92 NSCLC = tested on: HOP-92 NSCLC
ACHN renal = tested on: ACHN renal
OVCAR-8 ovarian = tested on: OVCAR-8 ovarian
K-562 leukemia = tested on: K-562 leukemia
A498 renal = tested on: A498 renal
PC-3 prostate = tested on: PC-3 prostate
RXF 393 renal = tested on: RXF 393 renal
SN12C renal = tested on: SN12C renal
NCI-H23 lung = tested on: NCI-H23 lung

Structure (SMILES) | GI50 (UACC-257 melanoma) [µM] | TGI (UACC-257 melanoma) | GI50 (HOP-92 NSCLC) [µM] | TGI (HOP-92 NSCLC) | GI50 (ACHN renal) [µM] | TGI (ACHN renal) [µM] | GI50 (OVCAR-8 ovarian) [µM] | TGI (OVCAR-8 ovarian) | GI50 (K-562 leukemia) [µM] | TGI (K-562 leukemia) | GI50 (A498 renal) [µM] | TGI (A498 renal) | GI50 (PC-3 prostate) [µM] | TGI (PC-3 prostate) [µM] | GI50 (RXF 393 renal) [µM] | TGI (RXF 393 renal) | GI50 (SN12C renal) [µM] | TGI (SN12C renal) [µM] | GI50 (NCI-H23 lung) [µM] | TGI (NCI-H23 lung) [µM]
COc1cc(C2C3=C(COC3=O)N(CCO)c3cc4c(cc32)OCCO4)cc(OC)c1O (configuration not stated) | > 10.2 | > 50 µM | > 50 | > 50 µM | 5.94 | > 50 | 2.76 | > 50 µM | 1.89 | > 50 µM | 1.41 | > 23.4 µM | 2.17 | > 50 | 0.971 | > 50 µM | 4.1 | > 50 | 2.46 | > 50
O=C1/C(=C/c2ccc(F)cc2)CN(Cc2cn(CCNc3ccnc4cc(Cl)ccc34)nn2)C/C1=C\c1ccc(F)cc1 | 1.78 | 3.35 µM | 1.34 | 3.05 µM | 1.68 | 3.04 | 1.78 | 5.24 µM | 0.301 | 1.58 µM | 1.11 | 2.35 µM | 1.16 | 2.6 | 1.66 | 3.11 µM | 1.58 | 3.09 | 1.84 | 4.01
CC(C)=CCNc1ncnc2c1ncn2C1OC(COP(=O)(O)O)C(O)C1O (configuration not stated) | > 100 | > 100 µM | 1.63 | 5.1 µM | 3.08 | > 100 | 1.6 | 3.64 µM | 4.22 | > 100 µM | 1.53 | 3.3 µM | 2 | 8.22 | 2.38 | 8.98 µM | 3.94 | > 100 | 6.68 | > 100
COC(=O)C1=C(O)C(C(=O)OC)[C@@]2(O)[C@@H](C(=O)OC)C(c3ccccc3C(F)(F)F)C[C@@H]1[C@@H]2C(=O)OC (some centres not stated) | 6.39 | 20.3 µM | 15.8 | 37.9 µM | 1.61 | 3.05 | 10.1 | 24.5 µM | 2.15 | 9.52 µM | 3.05 | 7.62 µM | 6.02 | 24.7 | 3.11 | 7.65 µM | 4.33 | 15.2 | 3.44 | 11.6
O=C(O)/C=C/C(=O)Nc1cccc2c1-c1ccccc1C2=O |  | > 100 µM |  | > 100 µM |  | > 100 |  | > 100 µM |  | > 64.1 µM |  | > 100 µM |  | > 88.9 |  | > 55 µM |  | > 100 |  | > 100
CN1CCN(c2nc(NCCNc3ccnc4cc(Cl)ccc34)c3ccccc3n2)CC1 | 1.71 | 3.18 µM | 1.13 | 2.6 µM | 2.85 | 8.27 | 2.12 | 5.75 µM | 0.721 | 3.82 µM | 12.3 | 25.5 µM | 2.07 | 14.3 | 1.46 | 3.46 µM | 2.03 | 5.6 | 3.64 | 15.2
N=C(N)c1ccc(-c2ccc(-c3ccco3)o2)cc1 | 1.84 | 3.73 µM | 1.38 | 4.7 µM | 4.24 | 15.3 | 8.22 | 30.7 µM | 2.66 | 10.4 µM | 6.58 | 20 µM | 4.05 | 17 | 4.68 | 18.4 µM | 5.97 | 21.2 | 11 | 26.6
CC(CC(C)[C@H]1CCC2[C@H]3C(CC[C@@]21C)[C@@]1(C)CCC(O)C[C@H]1C[C@@H]3O)C(=O)O (some centres not stated) |  | > 100 µM |  | > 100 µM |  | > 100 |  | > 100 µM |  | > 100 µM |  | > 100 µM |  | > 100 |  | > 100 µM |  | > 100 |  | > 100
O=c1cc(N2CCOCC2)oc2c(-c3ccccc3)cccc12 | 9.06 | 69.2 µM and 60.8 µM | 3.74 | > 100 µM and 78.5 µM | 4.25 | > 100 |  | > 80.1 µM and 29.1 µM |  | > 100 µM and 79.7 µM | 1.53 | 7.54 µM and 13.9 µM | 2.96 | > 100 |  | 13.4 µM and 13.6 µM | 2.93 | > 100 | 9.08 | > 100
S=c1sc2ccccc2n1CN1CCN(Cc2ccccc2)CC1 |  | > 100 µM |  | > 100 µM |  | > 100 |  | > 100 µM |  | > 100 µM |  | > 100 µM |  | > 100 |  | > 100 µM |  | > 100 |  | > 100
O=C(O)CSc1ccn(Cc2ccccc2)c1 |  | > 100 µM |  | > 100 µM |  | > 100 |  | > 100 µM |  | > 100 µM |  | > 100 µM |  | > 100 |  | > 100 µM |  | > 100 |  | > 100
